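Interpolation was linear, between the two tested concentrations surrounding the appropriate level; five concentrations were tested over 48 hours in 96-well plates. Definition used: TGI = concentration required for complete inhibition of growth.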
How the values were obtained:
Experiment in all cases: inhibition of tumour cell growth, NCI panel, 48 h
MCF7 breast = tested on: MCF7 breast
HT29 colon = tested on: HT29 colon
HCT-15 colon = tested on: HCT-15 colon
NCI-H226 lung = tested on: NCI-H226 lung
HCC-2998 colon = tested on: HCC-2998 colon
SNB-19 CNS = tested on: SNB-19 CNS
NCI-H460 lung = tested on: NCI-H460 lung
CCRF-CEM leukemia = tested on: CCRF-CEM leukemia
HS 578T breast = tested on: HS 578T breast
DU-145 prostate = tested on: DU-145 prostate
TK-10 renal = tested on: TK-10 renal
UO-31 renal = tested on: UO-31 renal
SR leukemia = tested on: SR leukemia

Compound | TGI (MCF7 breast) | TGI (HT29 colon) | TGI (HCT-15 colon) | TGI (NCI-H226 lung) | TGI (HCC-2998 colon) | TGI (SNB-19 CNS) | TGI (NCI-H460 lung) | TGI (CCRF-CEM leukemia) | TGI (HS 578T breast) | TGI (DU-145 prostate) | TGI (TK-10 renal) | TGI (UO-31 renal) | TGI (SR leukemia)
NNC(=O)CC(=O)Nc1cccc(Cl)c1 | > 100 µM | > 100 µM | > 100 µM | > 100 µM | > 100 µM | > 100 µM | > 100 µM | > 100 µM | > 100 µM | > 100 µM | > 100 µM | > 100 µM | > 100 µM
COC(=O)/C=C\C(C#N)(C#N)N=Cc1cccc(OC)c1 | 38.9 µM | 10.5 µM | 4.54 µM | 28.7 µM | 34.4 µM | 46.3 µM | 40.8 µM | > 50.8 µM | 38 µM | 27.7 µM | 4.78 µM | 8.46 µM | > 24.5 µM
O=C1c2ccccc2C(=O)N1CCSCC(CO)SCCN1C(=O)c2ccccc2C1=O (centres undefined) | > 100 µM | > 100 µM | > 100 µM | > 100 µM | > 100 µM | > 100 µM | > 100 µM | > 100 µM | > 100 µM | > 100 µM | > 100 µM | > 100 µM | > 100 µM
COC1CCON1C(=O)c1ccccc1 (centres undefined) | > 10 µM | > 10 µM | > 10 µM | > 10 µM | > 10 µM | > 10 µM | > 10 µM | > 10 µM | > 10 µM | > 10 µM | > 10 µM | > 10 µM | > 10 µM
COC(=O)C1Cc2ccc(O)c(O)c2CN1 (centres undefined) | 32 µM | 55.7 µM | 87.1 µM | > 100 µM | > 100 µM | > 100 µM | > 100 µM | > 100 µM | 56 µM | 81.2 µM | > 100 µM | 51.8 µM | 82.2 µM
CCOC(=O)C(NC(=O)c1ccccc1)(Nc1ccc(S(=O)(=O)Nc2ncccn2)cc1)C(F)(F)F (centres undefined) | > 100 µM | > 100 µM | > 100 µM | > 100 µM | > 100 µM | > 100 µM | > 100 µM | > 100 µM | > 100 µM | > 100 µM | > 100 µM | > 100 µM | > 100 µM
COc1ccc(OC)c(NCC(=O)Nn2cnc3ccc(S(=O)(=O)Nc4cc(OC)ccc4OC)cc3c2=O)c1 | > 100 µM | > 100 µM | > 100 µM | > 100 µM | > 100 µM | > 100 µM | > 100 µM | > 100 µM | > 100 µM | > 100 µM | > 100 µM | > 100 µM | > 100 µM
CCOC(=O)CC(c1ccccc1)C(C)(C(=O)OCC)C(=O)OCC (centres undefined) | > 100 µM | > 100 µM | > 100 µM | > 100 µM | > 100 µM | > 100 µM | > 100 µM | > 100 µM | > 100 µM | > 100 µM | > 100 µM | > 100 µM | > 100 µM
O=c1c2ccccc2[nH]n1Cc1ccccc1 | > 100 µM | > 100 µM | > 100 µM | > 100 µM | > 100 µM | > 100 µM | > 100 µM | > 100 µM | > 100 µM | > 100 µM | > 100 µM | > 100 µM | > 100 µM
S=C(N/N=C(\c1ccccc1)c1ccccn1)NC1CCCCC1 | > 100 µM | > 100 µM | > 100 µM | > 100 µM | > 100 µM | > 100 µM | > 100 µM | > 100 µM | > 100 µM | > 100 µM | > 100 µM | > 100 µM | > 100 µM
O=[N+]([O-])C(/C=C(\Cl)[N+](=O)[O-])=C1Nc2ccccc2N1 | > 100 µM | > 100 µM | > 100 µM | 97.2 µM | > 100 µM | > 100 µM | > 100 µM | 97.5 µM | > 100 µM | > 100 µM | > 100 µM | > 100 µM | 75.1 µM
NC(N)=NS(=O)(=O)c1ccc(N/N=C2/CCOC2=O)cc1 | > 100 µM | > 100 µM | > 100 µM | > 100 µM | > 100 µM | > 100 µM | > 100 µM | > 100 µM | > 100 µM | > 100 µM | > 100 µM | > 100 µM | > 100 µM
CSc1nc(C)cc(Nc2ccc(O)c(CN3CCOCC3)c2)n1 | > 100 µM | > 100 µM | > 100 µM | > 100 µM | > 100 µM | > 100 µM | > 100 µM | > 100 µM | > 100 µM | > 100 µM | > 100 µM | > 100 µM | > 100 µM
